Laboratory results as given in PMC12090182, “Repurposing of the RIPK1-Selective Benzo[1,4]oxazepin-4-one Scaffold for the Development of a Type III LIMK1/2 Inhibitor” (ACS Chemical Biology, 2025).

Experiments:
Assay in all cases: scanMAX KINOMEscan (Eurofins)
Assay type in all cases: binding
MTOR = MTOR (Homo sapiens, UniProt P42345); conditions: compound concentration 100 nM; Entrez MTOR; read-out: Percent Control
From the text: (§1) Supplement cb5c00097_si_002.xlsx, sheet "Table S6 (Eurofins Selectivity)" | column: Percent Control

YSK1 = YSK1 (Homo sapiens, UniProt O00506); conditions: compound concentration 100 nM; Entrez STK25; read-out: Percent Control
From the text: as §1

ACVR1 = ACVR1 (Homo sapiens, UniProt Q04771); conditions: 1000 nM, read-out: Percent Control
From the text: as §1

CSNK1G1 = CSNK1G1 (Homo sapiens, UniProt Q9HCP0); conditions: 1000 nM, read-out: Percent Control
From the text: as §1

CSF1R-autoinhibited = CSF1R-autoinhibited (Homo sapiens, UniProt P07333); conditions: 1000 nM, read-out: Percent Control
From the text: as §1

FLT3-autoinhibited = FLT3-autoinhibited (Homo sapiens, UniProt P36888); conditions: 1000 nM, read-out: Percent Control
From the text: as §1

PHKG1 = PHKG1 (Homo sapiens, UniProt Q16816); conditions: 1000 nM, read-out: Percent Control
From the text: as §1

CDKL3 = CDKL3 (Homo sapiens, UniProt Q8IVW4); conditions: read-out: Percent Control
CDKL3, sequence (Q8IVW4 whole entry): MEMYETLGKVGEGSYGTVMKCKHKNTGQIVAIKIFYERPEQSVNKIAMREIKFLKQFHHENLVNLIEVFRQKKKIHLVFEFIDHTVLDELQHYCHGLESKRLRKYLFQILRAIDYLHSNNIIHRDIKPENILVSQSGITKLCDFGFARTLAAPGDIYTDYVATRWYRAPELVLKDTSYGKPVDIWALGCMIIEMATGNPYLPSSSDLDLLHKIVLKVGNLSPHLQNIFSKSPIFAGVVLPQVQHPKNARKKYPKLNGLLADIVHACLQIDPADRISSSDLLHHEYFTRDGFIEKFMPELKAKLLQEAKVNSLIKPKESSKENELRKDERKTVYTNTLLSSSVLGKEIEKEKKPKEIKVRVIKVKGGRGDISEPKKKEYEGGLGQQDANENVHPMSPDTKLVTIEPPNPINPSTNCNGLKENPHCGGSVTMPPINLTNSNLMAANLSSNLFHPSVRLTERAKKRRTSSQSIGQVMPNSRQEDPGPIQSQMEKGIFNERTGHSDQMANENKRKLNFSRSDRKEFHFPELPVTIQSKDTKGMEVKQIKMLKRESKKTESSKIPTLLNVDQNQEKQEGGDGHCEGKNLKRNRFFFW
From the text: as §1

YANK1 = YANK1 (Homo sapiens, UniProt Q8WU08); conditions: 1000 nM, read-out: Percent Control
From the text: as §1

SLK = SLK (Homo sapiens, UniProt Q9H2G2); conditions: 1000 nM, read-out: Percent Control
From the text: as §1

CAMK1G = CAMK1G (Homo sapiens, UniProt Q96NX5); conditions: 1000 nM, read-out: Percent Control
From the text: as §1

PKNB(M.tuberculosis) = PKNB(M.tuberculosis) (Mycobacterium tuberculosis, UniProt P9WI81); conditions: 1000 nM, read-out: Percent Control
From the text: as §1

PRKCE = PRKCE (Homo sapiens, UniProt Q02156); conditions: compound concentration 100 nM; Entrez PRKCE; read-out: Percent Control
From the text: as §1

ERBB3 = ERBB3 (Homo sapiens, UniProt P21860); conditions: 1000 nM, read-out: Percent Control
From the text: as §1

PIP5K1A = PIP5K1A (Homo sapiens, UniProt Q99755); conditions: 1000 nM, read-out: Percent Control
From the text: as §1

FLT4 = FLT4 (Homo sapiens, UniProt P35916); conditions: 1000 nM, read-out: Percent Control
From the text: as §1

QSK = QSK (Homo sapiens, UniProt Q9Y2K2); conditions: read-out: Percent Control
QSK, sequence (Q9Y2K2 whole entry): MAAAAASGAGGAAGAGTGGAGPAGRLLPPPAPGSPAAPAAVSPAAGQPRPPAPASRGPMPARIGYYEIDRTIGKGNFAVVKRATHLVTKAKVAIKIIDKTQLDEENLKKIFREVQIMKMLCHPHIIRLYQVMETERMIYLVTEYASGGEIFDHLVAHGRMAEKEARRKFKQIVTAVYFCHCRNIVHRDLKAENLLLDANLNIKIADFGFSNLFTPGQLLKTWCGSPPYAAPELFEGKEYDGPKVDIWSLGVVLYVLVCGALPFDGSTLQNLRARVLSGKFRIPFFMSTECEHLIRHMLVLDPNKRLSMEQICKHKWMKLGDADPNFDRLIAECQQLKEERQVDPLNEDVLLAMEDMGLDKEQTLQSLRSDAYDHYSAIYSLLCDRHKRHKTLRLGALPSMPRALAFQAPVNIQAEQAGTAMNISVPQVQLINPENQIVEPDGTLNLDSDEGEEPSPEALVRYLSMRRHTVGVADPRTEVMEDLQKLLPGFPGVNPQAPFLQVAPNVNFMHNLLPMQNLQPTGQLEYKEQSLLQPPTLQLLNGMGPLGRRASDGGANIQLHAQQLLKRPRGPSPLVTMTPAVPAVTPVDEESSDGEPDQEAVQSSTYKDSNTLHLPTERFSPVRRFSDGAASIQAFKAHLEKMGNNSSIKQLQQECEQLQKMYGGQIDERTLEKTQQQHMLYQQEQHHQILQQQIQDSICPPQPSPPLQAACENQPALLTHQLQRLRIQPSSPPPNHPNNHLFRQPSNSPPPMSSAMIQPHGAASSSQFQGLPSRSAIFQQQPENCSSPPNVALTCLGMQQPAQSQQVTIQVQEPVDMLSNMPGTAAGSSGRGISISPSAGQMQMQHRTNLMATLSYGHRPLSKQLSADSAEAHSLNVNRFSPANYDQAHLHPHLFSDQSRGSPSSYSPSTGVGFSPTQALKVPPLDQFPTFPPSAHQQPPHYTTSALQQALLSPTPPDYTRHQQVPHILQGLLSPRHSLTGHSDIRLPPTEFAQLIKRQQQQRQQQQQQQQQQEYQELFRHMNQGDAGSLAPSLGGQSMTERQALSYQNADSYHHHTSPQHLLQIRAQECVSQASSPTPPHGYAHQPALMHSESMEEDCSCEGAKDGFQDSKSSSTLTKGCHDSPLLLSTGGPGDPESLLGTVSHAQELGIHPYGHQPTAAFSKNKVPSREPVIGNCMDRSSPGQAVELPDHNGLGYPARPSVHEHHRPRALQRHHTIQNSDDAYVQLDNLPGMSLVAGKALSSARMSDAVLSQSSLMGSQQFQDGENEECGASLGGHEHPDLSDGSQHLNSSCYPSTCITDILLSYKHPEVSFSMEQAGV
From the text: as §1

ERK3 = ERK3 (Homo sapiens, UniProt Q16659); conditions: read-out: Percent Control
ERK3, sequence (Q16659 whole entry): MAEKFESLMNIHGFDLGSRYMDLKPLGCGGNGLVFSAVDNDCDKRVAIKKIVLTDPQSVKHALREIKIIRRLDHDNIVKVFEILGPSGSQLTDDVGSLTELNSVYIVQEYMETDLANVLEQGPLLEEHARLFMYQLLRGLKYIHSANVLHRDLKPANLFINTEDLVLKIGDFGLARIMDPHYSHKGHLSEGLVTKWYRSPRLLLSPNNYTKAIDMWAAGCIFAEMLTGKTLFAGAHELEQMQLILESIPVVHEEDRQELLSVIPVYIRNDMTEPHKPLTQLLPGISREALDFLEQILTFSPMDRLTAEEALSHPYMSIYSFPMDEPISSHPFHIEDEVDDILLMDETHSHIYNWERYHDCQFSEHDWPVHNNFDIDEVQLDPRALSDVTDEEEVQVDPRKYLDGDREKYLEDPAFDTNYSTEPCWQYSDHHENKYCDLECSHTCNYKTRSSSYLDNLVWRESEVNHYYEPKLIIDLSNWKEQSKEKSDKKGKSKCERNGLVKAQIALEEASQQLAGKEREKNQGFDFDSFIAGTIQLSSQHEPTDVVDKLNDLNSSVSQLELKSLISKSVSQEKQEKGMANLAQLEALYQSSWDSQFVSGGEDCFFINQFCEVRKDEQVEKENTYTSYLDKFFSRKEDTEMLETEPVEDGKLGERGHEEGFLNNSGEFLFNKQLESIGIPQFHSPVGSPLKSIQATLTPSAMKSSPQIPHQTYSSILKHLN
From the text: as §1

MAP3K4 = MAP3K4 (Homo sapiens, UniProt Q9Y6R4); conditions: 1000 nM, read-out: Percent Control
From the text: as §1

LKB1 = LKB1 (Homo sapiens, UniProt Q15831); conditions: 1000 nM, read-out: Percent Control
From the text: as §1

PRKD1 = PRKD1 (Homo sapiens, UniProt Q15139); conditions: 1000 nM, read-out: Percent Control
From the text: as §1

IGF1R = IGF1R (Homo sapiens, UniProt P08069); conditions: read-out: Percent Control
From the text: as §1

SGK2 = SGK2 (Homo sapiens, UniProt Q9HBY8); conditions: 1000 nM, read-out: Percent Control
From the text: as §1

PYK2 = PYK2 (Homo sapiens, UniProt Q14289); conditions: 1000 nM, read-out: Percent Control
From the text: as §1

MAP3K15 = MAP3K15 (Homo sapiens, UniProt Q6ZN16); conditions: compound concentration 100 nM; Entrez MAP3K15; read-out: Percent Control
From the text: as §1

EPHA2 = EPHA2 (Homo sapiens, UniProt P29317); conditions: read-out: Percent Control
EPHA2, sequence (P29317 24-976): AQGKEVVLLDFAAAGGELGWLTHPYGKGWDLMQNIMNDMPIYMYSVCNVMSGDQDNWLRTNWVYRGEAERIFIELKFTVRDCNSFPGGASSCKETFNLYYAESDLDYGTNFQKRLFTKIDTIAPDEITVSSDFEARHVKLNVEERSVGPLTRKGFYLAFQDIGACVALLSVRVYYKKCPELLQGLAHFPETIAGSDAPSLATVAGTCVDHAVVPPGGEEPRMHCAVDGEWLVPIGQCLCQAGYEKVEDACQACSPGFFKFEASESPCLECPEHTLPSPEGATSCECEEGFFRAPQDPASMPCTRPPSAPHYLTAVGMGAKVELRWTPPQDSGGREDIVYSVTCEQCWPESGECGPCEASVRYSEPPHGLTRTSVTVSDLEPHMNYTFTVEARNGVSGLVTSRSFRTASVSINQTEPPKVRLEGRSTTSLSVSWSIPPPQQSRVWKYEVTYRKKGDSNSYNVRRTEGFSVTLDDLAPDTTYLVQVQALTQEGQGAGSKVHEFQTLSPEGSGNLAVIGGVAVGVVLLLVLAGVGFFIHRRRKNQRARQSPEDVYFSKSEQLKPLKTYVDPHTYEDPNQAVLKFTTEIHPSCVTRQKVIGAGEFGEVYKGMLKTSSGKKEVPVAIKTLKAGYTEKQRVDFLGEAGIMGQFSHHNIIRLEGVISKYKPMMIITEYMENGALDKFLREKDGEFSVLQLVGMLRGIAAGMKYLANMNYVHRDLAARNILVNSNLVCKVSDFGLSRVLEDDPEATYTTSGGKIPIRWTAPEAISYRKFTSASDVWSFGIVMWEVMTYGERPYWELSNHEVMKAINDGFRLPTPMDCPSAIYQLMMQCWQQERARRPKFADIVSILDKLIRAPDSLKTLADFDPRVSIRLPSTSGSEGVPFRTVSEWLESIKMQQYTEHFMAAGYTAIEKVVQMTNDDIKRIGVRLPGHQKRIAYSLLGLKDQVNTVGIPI
From the text: as §1

PRKR = PRKR (Homo sapiens, UniProt P19525); conditions: compound concentration 100 nM; Entrez EIF2AK2; read-out: Percent Control
From the text: as §1

[1] = target: RSK1(Kin.Dom.2-C-terminal) (Homo sapiens, UniProt Q15418); conditions: compound concentration 100 nM; Entrez RPS6KA1; read-out: Percent Control
From the text: as §1

CSNK1G3 = CSNK1G3 (Homo sapiens, UniProt Q9Y6M4); conditions: read-out: Percent Control
CSNK1G3, sequence (Q9Y6M4 whole entry): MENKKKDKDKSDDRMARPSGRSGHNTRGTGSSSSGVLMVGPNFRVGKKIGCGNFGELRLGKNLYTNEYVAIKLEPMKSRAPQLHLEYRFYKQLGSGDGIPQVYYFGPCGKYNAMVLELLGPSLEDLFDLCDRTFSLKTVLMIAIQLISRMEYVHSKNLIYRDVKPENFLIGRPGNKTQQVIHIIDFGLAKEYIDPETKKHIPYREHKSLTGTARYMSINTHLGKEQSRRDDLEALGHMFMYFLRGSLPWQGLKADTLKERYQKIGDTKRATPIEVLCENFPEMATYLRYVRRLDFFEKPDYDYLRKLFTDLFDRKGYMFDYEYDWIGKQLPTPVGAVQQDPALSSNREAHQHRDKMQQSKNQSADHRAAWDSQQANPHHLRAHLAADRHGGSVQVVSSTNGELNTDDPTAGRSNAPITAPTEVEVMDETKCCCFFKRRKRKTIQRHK
From the text: as §1

INSRR = INSRR (Homo sapiens, UniProt P14616); conditions: 1000 nM, read-out: Percent Control
From the text: as §1

MLK3 = MLK3 (Homo sapiens, UniProt Q16584); conditions: 1000 nM, read-out: Percent Control
From the text: as §1

RIOK1 = RIOK1 (Homo sapiens, UniProt Q9BRS2); conditions: 1000 nM, read-out: Percent Control
From the text: as §1

PIK3C2B = PIK3C2B (Homo sapiens, UniProt O00750); conditions: compound concentration 100 nM; Entrez PIK3C2B; read-out: Percent Control
From the text: as §1

PIKFYVE = PIKFYVE (Homo sapiens, UniProt Q9Y2I7); conditions: compound concentration 100 nM; Entrez PIKFYVE; read-out: Percent Control
From the text: as §1

MYLK2 = MYLK2 (Homo sapiens, UniProt Q9H1R3); conditions: 1000 nM, read-out: Percent Control
MYLK2, sequence (Q9H1R3 whole entry): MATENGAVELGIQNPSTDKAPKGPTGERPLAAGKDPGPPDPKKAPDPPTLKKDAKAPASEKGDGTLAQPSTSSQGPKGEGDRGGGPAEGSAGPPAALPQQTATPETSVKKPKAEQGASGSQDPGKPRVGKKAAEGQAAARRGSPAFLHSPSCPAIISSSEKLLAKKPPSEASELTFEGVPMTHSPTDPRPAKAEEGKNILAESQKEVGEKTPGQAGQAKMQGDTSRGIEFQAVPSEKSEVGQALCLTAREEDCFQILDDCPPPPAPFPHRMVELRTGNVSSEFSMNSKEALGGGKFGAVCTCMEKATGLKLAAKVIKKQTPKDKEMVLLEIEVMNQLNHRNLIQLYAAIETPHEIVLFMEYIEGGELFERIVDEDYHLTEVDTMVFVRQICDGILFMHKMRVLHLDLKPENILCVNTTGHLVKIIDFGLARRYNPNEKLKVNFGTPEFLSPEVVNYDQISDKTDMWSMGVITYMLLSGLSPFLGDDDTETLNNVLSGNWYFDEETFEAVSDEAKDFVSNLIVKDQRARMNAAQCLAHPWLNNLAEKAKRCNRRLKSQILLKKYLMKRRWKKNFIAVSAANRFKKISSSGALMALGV
From the text: as §1

CDK7 = CDK7 (Homo sapiens, UniProt P50613); conditions: read-out: Percent Control
CDK7, sequence (P50613 whole entry): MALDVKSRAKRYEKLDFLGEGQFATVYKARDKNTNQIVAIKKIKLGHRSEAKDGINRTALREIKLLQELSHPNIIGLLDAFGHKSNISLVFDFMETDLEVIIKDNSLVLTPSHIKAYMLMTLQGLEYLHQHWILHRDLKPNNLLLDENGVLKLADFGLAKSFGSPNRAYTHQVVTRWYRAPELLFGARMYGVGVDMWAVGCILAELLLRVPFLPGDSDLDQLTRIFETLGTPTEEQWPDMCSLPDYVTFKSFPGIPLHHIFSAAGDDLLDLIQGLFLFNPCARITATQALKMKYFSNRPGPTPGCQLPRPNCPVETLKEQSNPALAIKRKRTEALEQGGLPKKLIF
From the text: as §1

`CN1C(=O)[C@@H](N2CCc3c(nn(Cc4ccccc4)c3C(N)=O)C2=O)COc2cc(Cl)ccc21` [Compound 10, (S)-2-benzyl-6-(8-chloro-5-methyl-4-oxo-2,3,4,5-tetrahydrobenzo[b][1,4]oxazepin-3-yl)-7-oxo-4,5,6,7-tetrahydro-2H-pyrazolo[3,4-c]pyridine-3-carboxamide] gave a remaining binding at 0.1 µM (MTOR) of 86%, a remaining binding at 0.1 µM (YSK1) of 97% and a remaining binding at 1 µM (ACVR1) of 91%. For the same molecule, the remaining binding at 1 µM (CSNK1G1) was 91%, the remaining binding at 1 µM (CSF1R-autoinhibited) was 74% and the remaining binding at 1 µM (FLT3-autoinhibited) was 94%. For the same molecule, the remaining binding at 1 µM (PHKG1) was 93%, the remaining binding at 1 µM (CDKL3; 1000 nM) was 100% and the remaining binding at 0.1 µM (CDKL3; compound concentration 100 nM, Entrez CDKL3) was 91%. For the same molecule, the remaining binding at 1 µM (YANK1) was 90%, the remaining binding at 1 µM (SLK) was 78% and the remaining binding at 1 µM (CAMK1G) was 88%. The remaining binding at 1 µM (PKNB(M.tuberculosis)) was 83%, the remaining binding at 0.1 µM (PRKCE) was 91% and the remaining binding at 1 µM (ERBB3) was 85%. For the same molecule, the remaining binding at 1 µM (PIP5K1A) was 69%, the remaining binding at 1 µM (FLT4) was 92% and the remaining binding at 1 µM (QSK; 1000 nM) was 98%. The remaining binding at 0.1 µM (QSK; compound concentration 100 nM, Entrez KIAA0999) was 90%, the remaining binding at 1 µM (ERK3; 1000 nM) was 100% and the remaining binding at 0.1 µM (ERK3; compound concentration 100 nM, Entrez MAPK6) was 87%. It also gave a remaining binding at 1 µM (MAP3K4) of 92%, a remaining binding at 1 µM (LKB1) of 88% and a remaining binding at 1 µM (PRKD1) of 97%. For the same molecule, the remaining binding at 1 µM (IGF1R; 1000 nM) was 100%, the remaining binding at 0.1 µM (IGF1R; compound concentration 100 nM, Entrez IGF1R) was 88% and the remaining binding at 1 µM (SGK2) was 95%. It also gave a remaining binding at 1 µM (PYK2) of 82%, a remaining binding at 0.1 µM (MAP3K15) of 71% and a remaining binding at 1 µM (EPHA2; 1000 nM) of 100%. The remaining binding at 0.1 µM (EPHA2; compound concentration 100 nM, Entrez EPHA2) was 100%, the remaining binding at 0.1 µM (PRKR) was 71% and the remaining binding at 0.1 µM [1] was 97%. The remaining binding at 1 µM (CSNK1G3; 1000 nM) was 100%, the remaining binding at 0.1 µM (CSNK1G3; compound concentration 100 nM, Entrez CSNK1G3) was 98% and the remaining binding at 1 µM (INSRR) was 76%. It also gave a remaining binding at 1 µM (MLK3) of 92%, a remaining binding at 1 µM (RIOK1) of 85% and a remaining binding at 0.1 µM (PIK3C2B) of 86%. For the same molecule, the remaining binding at 0.1 µM (PIKFYVE) was 98%, the remaining binding at 1 µM (MYLK2) was 84% and the remaining binding at 1 µM (CDK7; 1000 nM) was 99%. It also gave a remaining binding at 0.1 µM (CDK7; compound concentration 100 nM, Entrez CDK7) of 72%.
